What was measured:
[1] = tested on: thrombus formation in blood; assay: Microchip pressure analysis, first channel, collagen + 0.4 mg/ml tissue thromboplastin, 8 μl/min (Examples 9, 10); format: cell-based; settings: for areas under pressure, first channel: 8 μL/min
Protocol: (§1) The same microchip as in Examples 1 to 3 was used, except that, in the second substrate 1b, a solution prepared by mixing 3 mg/ml collagen and 0.4 mg/ml tissue thromboplastin solution at a ratio of 1:1 and a solution prepared by mixing 3 mg/ml collagen and 0.2 mg/ml tissue thromboplastin solution at a ratio of 1:1 were applied to the positions corresponding to the first reaction section 102 and the second reaction section 112, respectively, such that each applied area has a size of 6 mm×6 mm. The microchip prepared was used in the following experiment.
(§2) Blood was collected using a blood collection tube containing 3.2% sodium citrate, manufactured by Terumo Corporation. To the collected blood, 50 μg/ml (final concentration) CTI and 12 mM (final concentration) calcium chloride were added, and the resulting blood was used for perfusion of the first channel at a flow rate of 8 μl/min. and the second channel at a flow rate of 24 μl/min. for 10 minutes while pressure analysis was carried out.
(§3) The same experiment as in Example 9 was carried out except that blood prepared by 2-fold dilution with physiological saline (Otsuka Pharmaceutical Co., Ltd.), blood prepared by 2-fold dilution with physiological saline+addition of 0.5 U/ml vWF (CSL-Behring), blood prepared by 2-fold dilution+addition of 0.5 U/ml PCC (CSL-Behring), blood prepared by addition of 1 U/ml heparin, or blood prepared by addition of 2 μg/ml abciximab, was used.

[2] = tested on: thrombus formation in blood; assay: Microchip pressure analysis, first channel, collagen + tissue thromboplastin, 8 μl/min (Example 4); format: cell-based; settings: for integrated values of the pressures measured for 10 minutes, first channel: 8 μL/min
Protocol: (§4) A microchip having the same shape as in Examples 1 to 3 was prepared, and, in the second substrate 1b, a solution prepared by mixing 3 mg/ml collagen solution and 0.4 mg/ml tissue thromboplastin solution at a ratio of 1:1 was applied to the positions corresponding to the first reaction section 102 and the second reaction section 112 such that each applied area has a size of 6 mm×6 mm. The microchip prepared was used in the following experiment.
as §2, with “8 μl/min. (initial wall shear rate, about 660 s^−1) and the” for “8 μl/min. and the”, “24 μl/min. (initial wall shear rate, about 2000 s^−1) for 10” for “24 μl/min. for 10”
(§5) The same experiment as in Example 4-1 was carried out using (1) blood prepared by 2-fold dilution of the citrate blood with physiological saline; (2) blood prepared by adding a 0.5 U vWF (von Willebrand factor) formulation (CSL-Behring) to the 2-fold diluted blood of (1); (3) blood prepared by adding a 0.5 U PCC formulation (CSL-Behring) to the 2-fold diluted blood of (1); (4) blood prepared by adding 1 U heparin; or (5) blood prepared by adding 3 μg/ml Abciximab (Eli Lilly).
(§6) The integrated values of the pressures measured for 10 minutes, and the ratios between the first channel and the second channel are shown in the following Table 1.

[3] = tested on: thrombus formation in blood; assay: Microchip pressure analysis, second channel, collagen + 0.2 mg/ml tissue thromboplastin, 24 μl/min (Examples 9, 10); format: cell-based; settings: for areas under pressure, second channel: 24 μL/min
Protocol: as §1, §2, §3

[4] = tested on: thrombus formation in blood; assay: Microchip pressure analysis, second channel, collagen + tissue thromboplastin, 24 μl/min (Example 4); format: cell-based; settings: for integrated values of the pressures measured for 10 minutes, second channel: 24 μL/min
Protocol: as §4
as §2, with “8 μl/min. (initial wall shear rate, about 660 s^−1) and the” for “8 μl/min. and the”, “24 μl/min. (initial wall shear rate, about 2000 s^−1) for 10” for “24 μl/min. for 10”
as §5, §6

[5] = tested on: white thrombi in the presence of blood flow; assay: Microchip pressure analysis with canine blood (Examples 5, 6); format: cell-based; settings: 0.5 U danaparoid sodium, 24 and 8 μl/min, 10 minutes
Protocol: Canine blood was anticoagulated with 3.2% sodium citrate. Subsequently, 50 μg/ml (final concentration) CTI and 12 mM (final concentration) calcium chloride were added to the blood, and the resulting blood was used for perfusion of the first channel at a flow rate of 24 μl/min. and the second channel at a flow rate of 8 μl/min. for 10 minutes while pressure analysis was carried out.
An experiment was carried out in the same manner as in Example 5 except that 0.5 U danaparoid sodium was added to the dog sodium citrate blood.

blood coagulation [6] = assay: ROTEM analysis of canine blood coagulation in the absence of blood flow (Comparative Example 2); format: cell-based; settings: 0.5 U/ml with 50 μg/ml CTI and 12 mM calcium chloride
Protocol: Canine blood was anticoagulated with 3.2% sodium citrate. Subsequently, 12 mM calcium chloride; 50 μg/ml (final concentration) CTI and 12 mM (final concentration) calcium chloride; or 0.5 U/ml (final concentration) danaparoid sodium, 50 μg/ml CTI, and 12 mM (final concentration) calcium chloride; was/were added to the blood, and blood coagulation in the absence of blood flow was analyzed by ROTEM (Tem International GmbH).

blood coagulation [7] = assay: ROTEM analysis of blood coagulation in the absence of blood flow (Comparative Example 1); format: cell-based; settings: 12 mM calcium chloride, 50 μg/ml CTI and 1 μg/ml Arixtra
Protocol: Blood was collected using a blood collection tube containing 3.2% sodium citrate, manufactured by Terumo Corporation. To the collected blood, 12 mM calcium chloride; 12 mM calcium chloride and 50 μg/ml CTI; or 12 mM calcium chloride, 50 μg/ml CTI, and 1 μg/ml Arixtra (synthetic pentasaccharide, GlaxoSmithKline K.K.); was/were added, and each resulting blood was analyzed by ROTEM (Tem International GmbH).

[8] = tested on: platelet-specific thrombus formation in blood; assay: Microchip pressure analysis, second channel coated with only collagen, hirudin-treated blood (Examples 1, 2); format: cell-based, human
Protocol: (§7) Two transparent substrates, that is, the first substrate 1a shown in FIG. 1(A) and the second substrate 1b shown in FIG. 1(B) (injection-molded products manufactured by Richell Corporation), were prepared. In the first substrate 1a, each of the channels 101 and 111 has a length of 20 mm, depth of 40 μm, and width of 2 mm, and each of the waste liquid storage sections has a length of 30 mm, depth of 1.3 mm, and width of 8.5 mm.
(§8) In the substrate 1a, 25 dividing walls each having a height of 40 μm, width of 40 μm, and length of 1.5 mm were arranged at equal intervals at positions corresponding to the first reaction section and the second reaction section of the first channel and the second channel, to provide channel dividing walls 109 and 119, respectively.
(§9) In the second substrate 1b, the holes corresponding to the inlets 104 and 114 were provided as penetrating holes each having an inner diameter of 2 mm and a circular cross-sectional shape. On the other hand, the holes corresponding to the air holes 105 and 115 were provided as penetrating holes each having an inner diameter of 1 mm and a circular cross-sectional shape. […]
(§10) Pumps 107 and 117 were connected to the reservoirs 106 and 116 through tubes, and the pressures applied to the pumps were measured using pressure sensors 108 and 118.

[9] = tested on: thrombus formation (fibrin and platelets) in blood; assay: Microchip pressure analysis, first channel coated with collagen and tissue thromboplastin, recalcified citrate blood + CTI (Examples 1, 2); format: cell-based, human
Protocol: as §7, §8, §9, §10

[10] = undiluted blood, 1 U/ml heparin or 2 μg/ml abciximab, cont 393.8
[11] = undiluted blood, heparin 1 U/ml or abciximab 3 μg/ml, control 409.3
[12] = undiluted blood, 1 U/ml heparin or 2 μg/ml abciximab, cont 438.2
[13] = undiluted blood, heparin 1 U/ml or abciximab 3 μg/ml, control 482

Q: With heparin [reference compound] as the molecule, how does the “areas under pressure, first channel” value [1, 10] read?
A: 12

Q: And the “thrombus formation in the first channel” value ([1]; Examples 9 and 10)?
A: more strongly suppressed thrombus formation in the first channel

Q: What about the “integrated values of the pressures measured for 10 minutes, first channel” value [2, 11] of the same molecule?
A: 127.3

Q: What about the “areas under pressure, second channel” value [3, 12] of the same molecule?
A: 198

Q: And the “integrated values of the pressures measured for 10 minutes, second channel” value [4, 13]?
A: 328.4

Q: What does the source list for “vWF: vWF (von Willebrand factor) formulation (CSL-Behring)”?
A: areas under pressure, first channel ([1]; 50% dilution with physiological saline + 0.5 U/ml factor, 50% dil alone 195.8): 297.9; integrated values of the pressures measured for 10 minutes, first channel ([2]; 50% dilution of citrate blood with physiological saline + 0.5 U/ml factor, 50% dilution alone 203.9): 171.2; areas under pressure, second channel ([3]; 50% dilution with physiological saline + 0.5 U/ml factor, 50% dil alone 110.2): 282.8; integrated values of the pressures measured for 10 minutes, second channel ([4]; 50% dilution of citrate blood with physiological saline + 0.5 U/ml factor, 50% dilution alone 248.2): 381.1; thrombi in the second channel ([4]; Example 4-2, 24 μl/min): remarkable recovery of thrombi in the second channel

Q: Which results are given for danaparoid sodium?
A: white thrombi in the presence of blood flow [5]: hardly suppresses white thrombi; blood coagulation in the absence of blood flow (blood coagulation [6]): remarkable delay of blood coagulation

Q: How did the “blood coagulation in the absence of blood flow” value (blood coagulation [7]) turn out when `CO[C@H]1O[C@H](COS(=O)(=O)O)[C@@H](O[C@@H]2O[C@@H](C(=O)O)[C@@H](O[C@H]3O[C@H](COS(=O)(=O)O)[C@@H](O[C@@H]4O[C@H](C(=O)O)[C@@H](O[C@H]5O[C@H](COS(=O)(=O)O)[C@@H](O)[C@H](O)[C@H]5NS(=O)(=O)O)[C@H](O)[C@H]4O)[C@H](OS(=O)(=O)O)[C@H]3NS(=O)(=O)O)[C@H](O)[C@H]2OS(=O)(=O)O)[C@H](O)[C@H]1NS(=O)(=O)O` [Arixtra] was run?
A: strongly suppresses blood coagulation

Q: What about the “change in the pressure waveform” value ([2]; Example 4-1 conditions, further addition of 0.5 μg/ml to the blood) of the same molecule?
A: no remarkable change in the pressure waveform

B1: abciximab (antibody, chains of the INN, looked up, V domains shown)
VH: EVQLQQSGTVLARPGASVKMSCEASGYTFTNYWMHWVKQRPGQGLEWIGAIYPGNSDTSYIQKFKGKAKLTAVTSTTSVYMELSSLTNEDSAVYYCTLYDGYYVFAYWGQGTLVTVSA
VL: EIVLTQSPVTLSVTPGDSVSLSCRASRDISNNLHWFQQTSHESPRLLIKYASQSMSGIPSRFSGSGSGTDFTLSINSVETEDFGMYFCQQTNSWPYTFGGGTKLEIK
modifications: Fab
Q: What does the source list for B1?
A: areas under pressure, first channel [1, 10]: 258; thrombus formation in the second channel ([8]; Examples 1 and 2): suppressed; integrated values of the areas below 60 kPa, second channel ([8]; hirudin blood, 18 μl/min, 10 minutes, 10 mM aspirin + 100 μM AR-C66096, 3 μg/ml abciximab or 200 nM OS-1, control 372): 5.4; thrombus formation in the first channel ([9]; Examples 1 and 2): suppressed; integrated values of the areas below 60 kPa, first channel ([9]; citrate blood + 12 mM calcium chloride + 50 μg/ml CTI, 18 μl/min, 10 minutes, 10 mM aspirin + 100 μM AR-C66096, 3 μg/ml abciximab or 200 nM OS-1, control 457): 27.0; integrated values of the pressures measured for 10 minutes, first channel [2, 11]: 394.8; areas under pressure, second channel [3, 12]: 6; thrombus formation in the second channel ([3]; Examples 9 and 10): more strongly suppressed thrombus formation in the second channel; integrated values of the pressures measured for 10 minutes, second channel [4, 13]: 20.5

Source: US10670616B2, “Microchip for assay of blood properties, and device for assay of blood properties” (FUJIMORI KOGYO CO., LTD., priority 2014, dated 2020)
